Measurements as given in ChEMBL document CHEMBL5370665, “Insight from Linker Investigations: Discovery of a Novel Phenylbenzothiazole Necroptosis Inhibitor Targeting Receptor-Interacting Protein Kinase 1 (RIPK1) from a Phenoxybenzothiazole Compound with Dual RIPK1/3 Targeting Activity” (J Med Chem, 2023).
Active and inactive are the calls of the source. No cut-off for these calls is given here.

Assays:
[1] = test system: HT-29; experiment: Anti-necroptic activity against human HT-29 cells assessed as inhibition of TSZ (TNFalpha, Smac mimetic and z-VAD-FMK) induced necroptosis pretreated with compound followed by TSZ stimulation for 16 to 18 hrs by CellTiter-Glo Luminescent cell viability assay; format: functional, cell-based
[2] = Cytotoxicity against human HT-29 cells assessed as reduction in cell viability incubated for 16 to 24 hrs by CellTiter-Glo Luminescent cell viability assay; format: toxicity, cell-based; conditions: time 16-24 hrs
[3] = target: Receptor-interacting serine/threonine-protein kinase 3 (Homo sapiens, UniProt Q9Y572); experiment: Binding affinity to recombinant RIPK3 (unknown origin) assessed as dissociation constant incubated for 1 hr by KINOMEscanTM assay
[4] = target: T1, Receptor-interacting serine/threonine-protein kinase 1 (Homo sapiens, UniProt Q13546); experiment: Binding affinity to recombinant RIPK1 (unknown origin) assessed as dissociation constant incubated for 1 hr by KINOMEscanTM assay
T1 sequence (Q13546 whole entry): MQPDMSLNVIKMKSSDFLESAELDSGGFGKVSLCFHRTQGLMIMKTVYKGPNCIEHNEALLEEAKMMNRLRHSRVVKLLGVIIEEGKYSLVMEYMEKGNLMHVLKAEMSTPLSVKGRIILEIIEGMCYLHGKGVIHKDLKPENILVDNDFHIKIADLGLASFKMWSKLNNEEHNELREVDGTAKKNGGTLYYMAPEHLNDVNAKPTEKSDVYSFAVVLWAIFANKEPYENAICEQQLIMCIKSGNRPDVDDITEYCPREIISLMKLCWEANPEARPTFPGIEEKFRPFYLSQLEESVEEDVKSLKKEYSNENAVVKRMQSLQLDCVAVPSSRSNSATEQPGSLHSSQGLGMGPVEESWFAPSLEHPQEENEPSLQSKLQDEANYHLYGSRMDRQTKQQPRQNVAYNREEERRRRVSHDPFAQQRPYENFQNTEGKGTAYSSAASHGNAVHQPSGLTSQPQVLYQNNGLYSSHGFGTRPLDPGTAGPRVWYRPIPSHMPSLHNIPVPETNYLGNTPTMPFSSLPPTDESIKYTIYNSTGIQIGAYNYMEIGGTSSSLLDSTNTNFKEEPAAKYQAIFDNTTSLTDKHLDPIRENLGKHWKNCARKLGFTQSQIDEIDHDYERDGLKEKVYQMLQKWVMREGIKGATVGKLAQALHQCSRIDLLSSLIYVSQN

[5] = test system: HT-29; experiment: Anti-necroptic activity in TSZ (TNFalpha, Smac mimetic and z-VAD-FMK) induced necroptosis in human HT-29 cells assessed as increase in cell viability preincubated for 30 mins pretreated followed by TSZ stimulation and measured after 16 hrs by MTT assay; format: functional, cell-based
[6] = test system: Mus musculus; experiment: Anti-inflammatory activity against C57BL/6J mouse model of TNFalpha-induced systemic inflammatory response syndrome (SIRS) assessed as decrease in IL-1beta level in intestine at 5 mg/kg,po 2 hrs prior to mTNFalpha and z-VAD-FMK stimulation for 8 hrs by ELISA; format: functional, organism-based; conditions: time 10.0 hrs
[7] = test system: Mus musculus; experiment: Anti-inflammatory activity against C57BL/6J mouse model of TNFalpha-induced systemic inflammatory response syndrome (SIRS) assessed as increase in survival rate at 5 mg/kg,po 2 hrs prior to mTNFalpha and z-VAD-FMK stimulation and measured upto 24 hrs; format: functional; conditions: time 26 hrs
[8] = test system: Mus musculus; experiment: Anti-inflammatory activity against C57BL/6J mouse model of TNFalpha-induced systemic inflammatory response syndrome (SIRS) assessed as decrease in IL-6 level in brain at 5 mg/kg,po 2 hrs prior to mTNFalpha and z-VAD-FMK stimulation for 8 hrs by ELISA; format: functional, organism-based; conditions: time 10.0 hrs
[9] = test system: Mus musculus; experiment: Anti-inflammatory activity against C57BL/6J mouse model of TNFalpha-induced systemic inflammatory response syndrome (SIRS) assessed as decrease in IL-6 level in intestine at 5 mg/kg,po 2 hrs prior to mTNFalpha and z-VAD-FMK stimulation for 8 hrs by ELISA; format: functional, organism-based; conditions: time 10.0 hrs
[10] = test system: Mus musculus; experiment: Anti-inflammatory activity against C57BL/6J mouse model of TNFalpha-induced systemic inflammatory response syndrome (SIRS) assessed as decrease in IL-6 level in spleen at 5 mg/kg,po 2 hrs prior to mTNFalpha and z-VAD-FMK stimulation for 8 hrs by ELISA; format: functional, organism-based; conditions: time 10.0 hrs
[11] = test system: Mus musculus; experiment: Anti-inflammatory activity against C57BL/6J mouse model of TNFalpha-induced systemic inflammatory response syndrome (SIRS) assessed as decrease in IL-1beta level in kidney at 5 mg/kg,po 2 hrs prior to mTNFalpha and z-VAD-FMK stimulation for 8 hrs by ELISA; format: functional, organism-based; conditions: time 10.0 hrs
[12] = test system: Mus musculus; experiment: Anti-inflammatory activity against C57BL/6J mouse model of TNFalpha-induced systemic inflammatory response syndrome (SIRS) assessed as decrease in IL-1beta level in liver at 5 mg/kg,po 2 hrs prior to mTNFalpha and z-VAD-FMK stimulation for 8 hrs by ELISA; format: functional, organism-based; conditions: time 10.0 hrs
[13] = test system: Mus musculus; experiment: Anti-inflammatory activity against C57BL/6J mouse model of TNFalpha-induced systemic inflammatory response syndrome (SIRS) assessed as decrease in IL-1beta level in spleen at 5 mg/kg,po 2 hrs prior to mTNFalpha and z-VAD-FMK stimulation for 8 hrs by ELISA; format: functional, organism-based; conditions: time 10.0 hrs
[14] = test system: Mus musculus; experiment: Anti-inflammatory activity against C57BL/6J mouse model of TNFalpha-induced systemic inflammatory response syndrome (SIRS) assessed as decrease in IL-6 level in kidney at 5 mg/kg,po 2 hrs prior to mTNFalpha and z-VAD-FMK stimulation for 8 hrs by ELISA; format: functional, organism-based; conditions: time 10.0 hrs
[15] = test system: Mus musculus; experiment: Anti-inflammatory activity against C57BL/6J mouse model of TNFalpha-induced systemic inflammatory response syndrome (SIRS) assessed as decrease in IL-6 level in liver at 5 mg/kg,po 2 hrs prior to mTNFalpha and z-VAD-FMK stimulation for 8 hrs by ELISA; format: functional, organism-based; conditions: time 10.0 hrs
[16] = test system: Mus musculus; experiment: Anti-inflammatory activity against C57BL/6J mouse model of TNFalpha-induced systemic inflammatory response syndrome (SIRS) assessed as decrease in IL-1beta level in lung at 5 mg/kg,po 2 hrs prior to mTNFalpha and z-VAD-FMK stimulation for 8 hrs by ELISA; format: functional, organism-based; conditions: time 10.0 hrs
[17] = test system: Mus musculus; experiment: Anti-inflammatory activity against C57BL/6J mouse model of TNFalpha-induced systemic inflammatory response syndrome (SIRS) assessed as decrease in IL-6 level in lung at 5 mg/kg,po 2 hrs prior to mTNFalpha and z-VAD-FMK stimulation for 8 hrs by ELISA; format: functional, organism-based; conditions: time 10.0 hrs
[18] = test system: Mus musculus; experiment: Anti-inflammatory activity against C57BL/6J mouse model of TNFalpha-induced systemic inflammatory response syndrome (SIRS) assessed as decrease in IL-6 level in heart at 5 mg/kg,po 2 hrs prior to mTNFalpha and z-VAD-FMK stimulation for 8 hrs by ELISA; format: functional, organism-based; conditions: time 10.0 hrs
[19] = test system: Mus musculus; experiment: Anti-inflammatory activity against C57BL/6J mouse model of TNFalpha-induced systemic inflammatory response syndrome (SIRS) assessed as decrease in IL-1beta level in heart at 5 mg/kg,po 2 hrs prior to mTNFalpha and z-VAD-FMK stimulation for 8 hrs by ELISA; format: functional, organism-based; conditions: time 10.0 hrs
[20] = test system: HT-29; experiment: Anti-apoptotic activity against human HT-29 cells assessed as inhibition of TC (human TNFalpha, cycloheximide) induced apoptosis upto 20 uM pretreated with compound followed by TC stimulation for 36 hrs by CellTiter-Glo Luminescent cell viability assay; format: functional, cell-based
[21] = test system: Mus musculus; experiment: Anti-inflammatory activity against C57BL/6J mouse model of TNFalpha-induced systemic inflammatory response syndrome (SIRS) assessed as increase in body temperature at 5 mg/kg,po 2 hrs prior to mTNFalpha and z-VAD-FMK stimulation and measured upto 18 hrs by electric thermometer analysis; format: functional, organism-based; conditions: time 20.0 hrs
[22] = test system: Mus musculus; experiment: Anti-inflammatory activity against C57BL/6J mouse model of TNFalpha-induced systemic inflammatory response syndrome (SIRS) assessed as decrease in IL-1beta level in brain at 5 mg/kg,po 2 hrs prior to mTNFalpha and z-VAD-FMK stimulation for 8 hrs by ELISA; format: functional, organism-based; conditions: time 10.0 hrs

Sequence of Receptor-interacting serine/threonine-protein kinase 3 (Q9Y572 whole entry): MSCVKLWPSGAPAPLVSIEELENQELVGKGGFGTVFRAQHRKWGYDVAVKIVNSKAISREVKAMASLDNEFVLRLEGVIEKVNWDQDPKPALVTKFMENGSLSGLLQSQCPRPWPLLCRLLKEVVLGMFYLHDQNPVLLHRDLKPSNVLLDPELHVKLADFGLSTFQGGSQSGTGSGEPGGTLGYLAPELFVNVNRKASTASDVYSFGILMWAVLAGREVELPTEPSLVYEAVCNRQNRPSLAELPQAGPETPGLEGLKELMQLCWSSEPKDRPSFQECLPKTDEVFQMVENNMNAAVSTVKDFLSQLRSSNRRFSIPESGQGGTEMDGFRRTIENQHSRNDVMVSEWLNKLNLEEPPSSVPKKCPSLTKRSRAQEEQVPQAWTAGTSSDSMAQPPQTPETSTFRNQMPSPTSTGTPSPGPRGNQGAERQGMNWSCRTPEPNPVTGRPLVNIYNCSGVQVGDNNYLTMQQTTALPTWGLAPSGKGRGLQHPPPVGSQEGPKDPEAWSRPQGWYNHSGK

Structure (SMILES) | EC50 [1] [µM] | CC50 [2] [µM] | further results
O=C(Cc1cccc(OC(F)(F)F)c1)Nc1cc(Nc2ccc3nc(NC(=O)C4CC4)sc3c2)ccc1F | 1.24 | > 10 | 
O=C(Cc1cccc(OC(F)(F)F)c1)Nc1cccc(-c2ccc3nc(NC(=O)C4CC4)sc3c2)c1F | 0.34 | > 10 | Kd [3]: > 5 µM; Kd [4]: 0.14 µM
O=C(Cc1cccc(OC(F)(F)F)c1)Nc1cc(NC(=O)c2ccc3nc(NC(=O)C4CC4)sc3c2)ccc1F | 3.13 | > 10 | 
O=C(Cc1cccc(OC(F)(F)F)c1)Nc1cc(C(=O)c2ccc3nc(NC(=O)C4CC4)sc3c2)ccc1F | 2.04 | > 10 | 
O=C(Cc1cccc(C(F)(F)F)c1)Nc1cc(Oc2cc3sc(NC(=O)C4CC4)nc3cc2F)ccc1F |  |  | EC50 [5]: 0.008 µM
O=C(Cc1cccc(OC(F)(F)F)c1)Nc1cc(-c2ccc3sc(NC(=O)C4CC4)nc3c2)ccc1F | > 20 | > 10 | 
O=C(Cc1cccc(OC(F)(F)F)c1)Nc1cc(Sc2ccc3nc(NC(=O)C4CC4)sc3c2)ccc1F | 1.56 | > 10 | 
O=C(Cc1cccc(OC(F)(F)F)c1)Nc1cc(C(=O)Nc2ccc3nc(NC(=O)C4CC4)sc3c2)ccc1F | 1.26 | > 10 | 
O=C(Cc1cccc(OC(F)(F)F)c1)Nc1cc(C#Cc2ccc3nc(NC(=O)C4CC4)sc3c2)ccc1F | 0.2 | > 10 | 
O=C(Cc1cccc(OC(F)(F)F)c1)Nc1cc(Cc2ccc3nc(NC(=O)C4CC4)sc3c2)ccc1F | 0.31 | > 10 | 
O=C(Cc1cccc(OC(F)(F)F)c1)Nc1ccc(-c2ccc3nc(NC(=O)C4CC4)sc3c2)cc1F | > 20 | > 10 | 
O=C(Cc1cccc(OC(F)(F)F)c1)Nc1cc(S(=O)(=O)c2ccc3nc(NC(=O)C4CC4)sc3c2)ccc1F | > 20 | > 10 | 
O=C(Cc1cccc(OC(F)(F)F)c1)Nc1cc(C(O)c2ccc3nc(NC(=O)C4CC4)sc3c2)ccc1F (stereo not given) | 0.71 | > 10 | 
O=C(Cc1cccc(OC(F)(F)F)c1)Nc1cc(Oc2ccc3nc(NC(=O)C4CC4)sc3c2)ccc1F |  |  | Activity [6]: inactive; survival at 5 mg/kg [7]: 40%; Activity [8]: inactive; Activity [9]: inactive; Activity [10]: inactive; Activity [11]: inactive; Activity [12]: inactive; Activity [13]: inactive; Activity [14]: inactive; Activity [15]: inactive; Activity [16]: inactive; Activity [17]: inactive; Activity [18]: inactive; Activity [19]: inactive; Activity [20]: Active; Activity [21]: inactive; Activity [22]: inactive
O=C(Cc1cccc(OC(F)(F)F)c1)Nc1c(F)cccc1-c1ccc2nc(NC(=O)C3CC3)sc2c1 | > 20 | > 10 | 
O=C(Cc1cccc(OC(F)(F)F)c1)Nc1cc(-c2cccc3sc(NC(=O)C4CC4)nc23)ccc1F | > 20 | > 10 | 
O=C(Cc1cccc(OC(F)(F)F)c1)Nc1cc(-c2cccc3nc(NC(=O)C4CC4)sc23)ccc1F | > 20 | > 10 | 
CN(c1ccc(F)c(NC(=O)Cc2cccc(OC(F)(F)F)c2)c1)c1ccc2nc(NC(=O)C3CC3)sc2c1 | 0.75 | > 10 | 
O=C(Cc1cccc(OC(F)(F)F)c1)Nc1cc(COc2ccc3nc(NC(=O)C4CC4)sc3c2)ccc1F | 0.9 | > 10 | 
O=C(Nc1cccc(C(F)(F)F)c1)Nc1cc(Oc2ccc3nc(NC(=O)C4CC4)sc3c2)ccc1F |  |  | Activity [20]: Active
